# Test results: patent US8168592B2 (Amgen Inc., priority 2005, dated 2012)
# Bridge positions count the residues as written; N and C are the ends. Square brackets hold non-standard residues; d marks the D form. Peptide text beside a SMILES is read from it. Oic = O=C(O)[C@@H]1C[C@@H]2CCCC[C@@H]2N1; 2Nal = N[C@@H](Cc1ccc2ccccc2c1)C(=O)O; hArg = N=C(N)NCCCC[C@H](N)C(=O)O; Cit = NC(=O)NCCC[C@H](N)C(=O)O; Aze = O=C(O)[C@@H]1CCN1; Ahx = NCCCCCC(=O)O
# Molecular target: T1, CGRP1 receptor (Homo sapiens, UniProt O60894+Q16602)
# T1 construct: SK-N-MC cells express CRLR and RAMP1, which form CGRP1 receptor; endogenous in cells; host or cells: SK-N-MC human neuroblastoma cells
# Experiment: in vitro CGRP1 receptor mediated cAMP assay in SK-N-MC cells
# Type: cell-based
# Conditions: Table 2C; unconjugated peptide; read-out: Peptide IC50
# Outline: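 Intracellular cAMP served as the Gs-coupled CGRP1 readout in endogenously expressing SK-N-MC cells. After a 15-minute room-temperature step in plasma-free medium, cell lysates (30 minutes, 37° C) went into a competitive ELISA with a cAMP-AP conjugate and anti-cAMP antibody for 1 hour, then a 30-minute substrate enhancer step before reading.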
# T1 sequence (Q16602 23-461): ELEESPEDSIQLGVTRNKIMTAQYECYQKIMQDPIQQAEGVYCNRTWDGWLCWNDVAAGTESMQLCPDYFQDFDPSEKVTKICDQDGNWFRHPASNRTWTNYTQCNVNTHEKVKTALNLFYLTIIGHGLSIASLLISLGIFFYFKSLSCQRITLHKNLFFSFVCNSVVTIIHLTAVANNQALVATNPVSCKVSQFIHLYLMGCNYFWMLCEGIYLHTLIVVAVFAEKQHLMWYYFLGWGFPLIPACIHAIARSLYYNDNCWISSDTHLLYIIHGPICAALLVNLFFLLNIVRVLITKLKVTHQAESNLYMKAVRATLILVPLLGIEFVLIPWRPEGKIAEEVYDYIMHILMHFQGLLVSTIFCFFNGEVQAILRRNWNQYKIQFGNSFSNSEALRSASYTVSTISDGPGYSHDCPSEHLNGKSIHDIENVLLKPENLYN
# T1 sequence (O60894 27-148): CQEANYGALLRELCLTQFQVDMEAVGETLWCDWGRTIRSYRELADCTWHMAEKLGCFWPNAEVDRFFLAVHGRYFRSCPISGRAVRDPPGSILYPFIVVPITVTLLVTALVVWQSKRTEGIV
row,IC50 [nM],SMILES
1,0.83,CC(=O)N[C@@H](Cc1c[nH]c2ccccc12)C(=O)N[C@H](C(=O)N[C@H]1CCC(=O)NCCCC[C@@H](C(=O)NCC(=O)N[C@@H](CC(C)C)C(=O)N[C@@H](CC(C)C)C(=O)N[C@@H](CO)C(=O)N[C@@H](CCCNC(N)=O)C(=O)N[C@@H](CO)C(=O)NCC(=O)NCC(=O)N[C@H](C(=O)N[C@H](C(=O)N[C@@H](CCCCNC(=N)N)C(=O)N[C@@H](CCCCN)C(=O)N[C@@H](CC(N)=O)C(=O)N[C@@H](Cc2ccccc2)C(=O)N[C@H](C(=O)N2CCC[C@H]2C(=O)N[C@H](C(=O)N[C@@H](CC(=O)O)C(=O)N[C@H](C(=O)NCC(=O)N2CCC[C@H]2C(=O)N[C@@H](Cc2ccccc2)C(=O)N[C@@H](C)C(=O)N[C@@H](Cc2ccccc2)C(N)=O)C(C)C)[C@@H](C)O)C(C)C)C(C)C)C(C)C)NC(=O)[C@H](CC(C)C)NC(=O)[C@H](CCCNC(N)=O)NC(=O)[C@H](Cc2c[nH]cn2)NC1=O)C(C)C [compound 907] (Ac-WVEH[Cit]LKGLLS[Cit]SGGVV[hArg]KNFVPTDVGPFAF-NH2; lactam 3-7)
2,1.28,CC(=O)N[C@@H](Cc1c[nH]c2ccccc12)C(=O)N[C@H](C(=O)N[C@H]1CCC(=O)NCCCC[C@@H](C(=O)NCC(=O)N[C@@H](CC(C)C)C(=O)N[C@@H](CC(C)C)C(=O)N[C@@H](CO)C(=O)N[C@@H](CCCNC(N)=O)C(=O)N[C@@H](CO)C(=O)NCC(=O)NCC(=O)N[C@H](C(=O)N[C@H](C(=O)N[C@@H](CCCCNC(=N)N)C(=O)N[C@@H](CCCCN)C(=O)N[C@@H](CC(N)=O)C(=O)N[C@@H](Cc2ccccc2)C(=O)N[C@H](C(=O)N2CCC[C@H]2C(=O)N[C@H](C(=O)N[C@@H](CC(=O)O)C(=O)N[C@H](C(=O)NCC(=O)N2CCC[C@H]2C(=O)N[C@@H](Cc2ccccc2)C(=O)N[C@@H](C)C(=O)N[C@@H](Cc2ccccc2)C(N)=O)C(C)C)[C@@H](C)O)C(C)C)C(C)C)C(C)C)NC(=O)[C@H](CC(C)C)NC(=O)[C@H](CCCCNC(=N)N)NC(=O)[C@H](Cc2c[nH]cn2)NC1=O)C(C)C [compound 908] (Ac-WVEH[hArg]LKGLLS[Cit]SGGVV[hArg]KNFVPTDVGPFAF-NH2; lactam 3-7)
3,3.45,CC(=O)N[C@@H](Cc1c[nH]c2ccccc12)C(=O)N[C@H](C(=O)N[C@H]1CCC(=O)NCCCC[C@@H](C(=O)NCC(=O)N[C@@H](CC(C)C)C(=O)N[C@@H](CC(C)C)C(=O)N[C@@H](CO)C(=O)N[C@@H](CCCNC(N)=O)C(=O)N[C@@H](CO)C(=O)NCC(=O)N2CC[C@H]2C(=O)N[C@H](C(=O)N[C@H](C(=O)N[C@@H](CCCCNC(=N)N)C(=O)N[C@@H](CCCCN)C(=O)N[C@@H](CC(N)=O)C(=O)N[C@@H](Cc2ccccc2)C(=O)N[C@H](C(=O)N2CCC[C@H]2C(=O)N[C@H](C(=O)N[C@@H](CC(=O)O)C(=O)N[C@H](C(=O)NCC(=O)N2CCC[C@H]2C(=O)N[C@@H](Cc2ccccc2)C(=O)N[C@@H](C)C(=O)N[C@@H](Cc2ccccc2)C(N)=O)C(C)C)[C@@H](C)O)C(C)C)C(C)C)C(C)C)NC(=O)[C@H](CC(C)C)NC(=O)[C@H](CCCCNC(=N)N)NC(=O)[C@H](Cc2c[nH]cn2)NC1=O)C(C)C [compound 909] (Ac-WVEH[hArg]LKGLLS[Cit]SG[Aze]VV[hArg]KNFVPTDVGPFAF-NH2; lactam 3-7)
4,2.31,CC(=O)N[C@@H](Cc1cccc2ccccc12)C(=O)N[C@H](C(=O)N[C@@H](CCC(=O)O)C(=O)N[C@@H](Cc1c[nH]cn1)C(=O)N[C@@H](CCCCNC(=N)N)C(=O)N[C@@H](CC(C)C)C(=O)N[C@@H](CCCCN)C(=O)NCC(=O)N[C@@H](CC(C)C)C(=O)N[C@@H](CC(C)C)C(=O)N[C@@H](CO)C(=O)N[C@@H](CCCNC(N)=O)C(=O)N[C@@H](CO)C(=O)NCC(=O)N1CC[C@H]1C(=O)N[C@H](C(=O)N[C@H](C(=O)N[C@@H](CCCCNC(=N)N)C(=O)N[C@@H](CCCCN)C(=O)N[C@@H](CC(N)=O)C(=O)N[C@@H](Cc1ccccc1)C(=O)N[C@H](C(=O)N1CCC[C@H]1C(=O)N[C@H](C(=O)N[C@@H](CC(=O)O)C(=O)N[C@H](C(=O)NCC(=O)N1CCC[C@H]1C(=O)N[C@@H](Cc1ccccc1)C(=O)N[C@@H](C)C(=O)N[C@@H](Cc1ccccc1)C(N)=O)C(C)C)[C@@H](C)O)C(C)C)C(C)C)C(C)C)C(C)C [compound 910]
5,1.16,CC(=O)N[C@@H](Cc1c[nH]c2ccccc12)C(=O)N[C@H](C(=O)N[C@H](C(=O)N[C@@H](Cc1c[nH]cn1)C(=O)N[C@@H](CCCNC(=N)N)C(=O)N[C@@H](CC(C)C)C(=O)N[C@@H](C)C(=O)NCC(=O)N[C@@H](CC(C)C)C(=O)N[C@@H](CC(C)C)C(=O)N[C@@H](CO)C(=O)N[C@@H](CCCNC(=N)N)C(=O)N[C@@H](CO)C(=O)NCC(=O)NCC(=O)N[C@H](C(=O)N[C@H](C(=O)N[C@@H](CCCNC(=N)N)C(=O)N[C@@H](CCCCN)C(=O)N[C@@H](CC(N)=O)C(=O)N[C@@H](Cc1ccc2ccccc2c1)C(=O)N[C@H](C(=O)N1CCC[C@H]1C(=O)N[C@H](C(=O)N[C@@H](CC(=O)O)C(=O)N[C@H](C(=O)NCC(=O)N1CCC[C@H]1C(=O)N[C@@H](Cc1ccccc1)C(=O)N[C@@H](C)C(=O)N[C@@H](Cc1ccccc1)C(N)=O)C(C)C)[C@@H](C)O)C(C)C)C(C)C)C(C)C)[C@@H](C)O)C(C)C [compound 912] (Ac-WVTHRLAGLLSRSGGVVRKN[2Nal]VPTDVGPFAF-NH2)
6,1.8,CC(C)C[C@H](NC(=O)CNC(=O)[C@H](C)NC(=O)[C@H](CC(C)C)NC(=O)[C@H](CCCNC(=N)N)NC(=O)[C@H](Cc1c[nH]cn1)NC(=O)[C@@H](NC(=O)[C@@H](NC(=O)[C@H](Cc1c[nH]c2ccccc12)NC(=O)CCCCCNC(=O)[C@@H](N)CS)C(C)C)[C@@H](C)O)C(=O)N[C@@H](CC(C)C)C(=O)N[C@@H](CO)C(=O)N[C@@H](CCCNC(=N)N)C(=O)N[C@@H](CO)C(=O)NCC(=O)NCC(=O)N[C@H](C(=O)N[C@H](C(=O)N[C@@H](CCCNC(=N)N)C(=O)N[C@@H](CCCCN)C(=O)N[C@@H](CC(N)=O)C(=O)N[C@@H](Cc1ccccc1)C(=O)N[C@H](C(=O)N1CCC[C@H]1C(=O)N[C@H](C(=O)N[C@@H](CC(=O)O)C(=O)N[C@H](C(=O)NCC(=O)N1CCC[C@H]1C(=O)N[C@@H](Cc1ccccc1)C(=O)N[C@@H](C)C(=O)N[C@@H](Cc1ccccc1)C(N)=O)C(C)C)[C@@H](C)O)C(C)C)C(C)C)C(C)C [compound 916] (H-C[Ahx]WVTHRLAGLLSRSGGVVRKNFVPTDVGPFAF-NH2)
7,0.85,CC(=O)N[C@@H](Cc1c[nH]c2ccccc12)C(=O)N[C@H](C(=O)N[C@H](C(=O)N[C@@H](Cc1c[nH]cn1)C(=O)N[C@@H](CCCNC(N)=O)C(=O)N[C@@H](CC(C)C)C(=O)N[C@@H](C)C(=O)NCC(=O)N[C@@H](CC(C)C)C(=O)N[C@@H](CC(C)C)C(=O)N[C@@H](CO)C(=O)N[C@@H](CCCNC(N)=O)C(=O)N[C@@H](CO)C(=O)NCC(=O)NCC(=O)N[C@H](C(=O)N[C@H](C(=O)N[C@@H](CCCNC(=N)N)C(=O)N[C@@H](CCCCN)C(=O)N[C@@H](CC(N)=O)C(=O)N[C@@H](Cc1ccccc1)C(=O)N[C@H](C(=O)N1CCC[C@H]1C(=O)N[C@H](C(=O)N[C@@H](CC(=O)O)C(=O)N[C@H](C(=O)NCC(=O)N1[C@H](C(=O)N[C@@H](Cc2ccccc2)C(=O)N[C@@H](C)C(=O)N[C@@H](Cc2ccccc2)C(N)=O)C[C@@H]2CCCC[C@@H]21)C(C)C)[C@@H](C)O)C(C)C)C(C)C)C(C)C)[C@@H](C)O)C(C)C [compound 920] (Ac-WVTH[Cit]LAGLLS[Cit]SGGVVRKNFVPTDVG[Oic]FAF-NH2)
8,2.24,CC(=O)N[C@@H](Cc1c[nH]c2ccccc12)C(=O)N[C@H](C(=O)N[C@H](C(=O)N[C@@H](Cc1c[nH]cn1)C(=O)N[C@@H](CCCNC(N)=O)C(=O)N[C@@H](CC(C)C)C(=O)N[C@@H](C)C(=O)NCC(=O)N[C@@H](CC(C)C)C(=O)N[C@@H](CC(C)C)C(=O)N[C@@H](CO)C(=O)N[C@@H](CCCNC(N)=O)C(=O)N[C@@H](CO)C(=O)NCC(=O)NCC(=O)N[C@H](C(=O)N[C@H](C(=O)N[C@@H](CCCNC(=N)N)C(=O)N[C@@H](CCCCN)C(=O)N[C@@H](CC(N)=O)C(=O)N[C@@H](Cc1ccccc1)C(=O)N[C@H](C(=O)N1CCC[C@H]1C(=O)N[C@H](C(=O)N[C@@H](CC(=O)O)C(=O)N[C@H](C(=O)NCC(=O)N1CCC[C@H]1C(=O)N[C@@H](Cc1ccccc1)C(=O)N[C@@H](C)C(=O)N[C@@H](Cc1ccc(I)cc1)C(N)=O)C(C)C)[C@@H](C)O)C(C)C)C(C)C)C(C)C)[C@@H](C)O)C(C)C [compound 923]
9,0.88,CC(=O)N[C@@H](Cc1c[nH]c2ccccc12)C(=O)N[C@H](C(=O)N[C@H](C(=O)N[C@@H](Cc1c[nH]cn1)C(=O)N[C@@H](CCCCNC(=N)N)C(=O)N[C@@H](CC(C)C)C(=O)N[C@@H](C)C(=O)NCC(=O)N[C@@H](CC(C)C)C(=O)N[C@@H](CC(C)C)C(=O)N[C@@H](CO)C(=O)N[C@@H](CCCNC(N)=O)C(=O)N[C@@H](CO)C(=O)NCC(=O)NCC(=O)N[C@H](C(=O)N[C@H](C(=O)N[C@@H](CCCCNC(=N)N)C(=O)N[C@@H](CCCCN)C(=O)N[C@@H](CC(N)=O)C(=O)N[C@@H](Cc1ccccc1)C(=O)N[C@H](C(=O)N1CCC[C@H]1C(=O)N[C@H](C(=O)N[C@@H](CC(=O)O)C(=O)N[C@H](C(=O)NCC(=O)N1CCC[C@H]1C(=O)N[C@@H](Cc1ccc2ccccc2c1)C(=O)N[C@@H](C)C(=O)N[C@@H](Cc1ccccc1)C(N)=O)C(C)C)[C@@H](C)O)C(C)C)C(C)C)C(C)C)[C@@H](C)O)C(C)C [compound 926] (Ac-WVTH[hArg]LAGLLS[Cit]SGGVV[hArg]KNFVPTDVGP[2Nal]AF-NH2)
10,1.16,CC(=O)N[C@@H](Cc1c[nH]c2ccccc12)C(=O)N[C@H](C(=O)N[C@H](C(=O)N[C@@H](Cc1c[nH]cn1)C(=O)N[C@@H](CCCNC(N)=O)C(=O)N[C@@H](CC(C)C)C(=O)N[C@@H](C)C(=O)NCC(=O)N[C@@H](CC(C)C)C(=O)N[C@@H](CC(C)C)C(=O)N[C@@H](CO)C(=O)N[C@@H](CCCNC(N)=O)C(=O)N[C@@H](CO)C(=O)NCC(=O)NCC(=O)N[C@H](C(=O)N[C@H](C(=O)N[C@@H](CCCCNC(=N)N)C(=O)N[C@@H](CCCCN)C(=O)N[C@@H](CC(N)=O)C(=O)N[C@@H](Cc1ccc(I)cc1)C(=O)N[C@H](C(=O)N1CCC[C@H]1C(=O)N[C@H](C(=O)N[C@@H](CC(=O)O)C(=O)N[C@H](C(=O)NCC(=O)N1CCC[C@H]1C(=O)N[C@@H](Cc1ccc(I)cc1)C(=O)N[C@@H](C)C(=O)N[C@@H](Cc1ccccc1)C(N)=O)C(C)C)[C@@H](C)O)C(C)C)C(C)C)C(C)C)[C@@H](C)O)C(C)C [compound 928]
